One test has as its target T1, Histone deacetylase 8 (Homo sapiens, UniProt Q9BY41).
T1 sequence (Q9BY41 whole entry): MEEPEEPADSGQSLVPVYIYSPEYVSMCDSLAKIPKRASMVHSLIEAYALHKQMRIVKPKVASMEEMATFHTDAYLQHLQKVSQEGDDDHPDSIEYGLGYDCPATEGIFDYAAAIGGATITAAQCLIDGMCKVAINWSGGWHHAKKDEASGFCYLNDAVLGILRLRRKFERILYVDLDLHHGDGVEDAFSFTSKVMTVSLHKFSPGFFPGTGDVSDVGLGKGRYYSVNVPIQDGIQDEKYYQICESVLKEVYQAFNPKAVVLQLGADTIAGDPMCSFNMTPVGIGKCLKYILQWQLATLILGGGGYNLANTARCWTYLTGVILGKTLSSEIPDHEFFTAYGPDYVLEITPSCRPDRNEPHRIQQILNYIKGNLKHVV
The test is described as follows: Inhibition of recombinant human full length C-terminal His-tagged HDAC8 expressed in baculovirus infected Sf9 insect cells using fluorometric substrate measured after 60 mins by FRET assay.

For the next test, the target named is Histone deacetylase 2 (Homo sapiens, UniProt Q92769). Put plainly: biochemical. The test is classed as cell-based, Sf9.
The target of test [1] is T2, Protein deacetylase HDAC6 (Homo sapiens, UniProt Q9UBN7).
T2 sequence (Q9UBN7 whole entry): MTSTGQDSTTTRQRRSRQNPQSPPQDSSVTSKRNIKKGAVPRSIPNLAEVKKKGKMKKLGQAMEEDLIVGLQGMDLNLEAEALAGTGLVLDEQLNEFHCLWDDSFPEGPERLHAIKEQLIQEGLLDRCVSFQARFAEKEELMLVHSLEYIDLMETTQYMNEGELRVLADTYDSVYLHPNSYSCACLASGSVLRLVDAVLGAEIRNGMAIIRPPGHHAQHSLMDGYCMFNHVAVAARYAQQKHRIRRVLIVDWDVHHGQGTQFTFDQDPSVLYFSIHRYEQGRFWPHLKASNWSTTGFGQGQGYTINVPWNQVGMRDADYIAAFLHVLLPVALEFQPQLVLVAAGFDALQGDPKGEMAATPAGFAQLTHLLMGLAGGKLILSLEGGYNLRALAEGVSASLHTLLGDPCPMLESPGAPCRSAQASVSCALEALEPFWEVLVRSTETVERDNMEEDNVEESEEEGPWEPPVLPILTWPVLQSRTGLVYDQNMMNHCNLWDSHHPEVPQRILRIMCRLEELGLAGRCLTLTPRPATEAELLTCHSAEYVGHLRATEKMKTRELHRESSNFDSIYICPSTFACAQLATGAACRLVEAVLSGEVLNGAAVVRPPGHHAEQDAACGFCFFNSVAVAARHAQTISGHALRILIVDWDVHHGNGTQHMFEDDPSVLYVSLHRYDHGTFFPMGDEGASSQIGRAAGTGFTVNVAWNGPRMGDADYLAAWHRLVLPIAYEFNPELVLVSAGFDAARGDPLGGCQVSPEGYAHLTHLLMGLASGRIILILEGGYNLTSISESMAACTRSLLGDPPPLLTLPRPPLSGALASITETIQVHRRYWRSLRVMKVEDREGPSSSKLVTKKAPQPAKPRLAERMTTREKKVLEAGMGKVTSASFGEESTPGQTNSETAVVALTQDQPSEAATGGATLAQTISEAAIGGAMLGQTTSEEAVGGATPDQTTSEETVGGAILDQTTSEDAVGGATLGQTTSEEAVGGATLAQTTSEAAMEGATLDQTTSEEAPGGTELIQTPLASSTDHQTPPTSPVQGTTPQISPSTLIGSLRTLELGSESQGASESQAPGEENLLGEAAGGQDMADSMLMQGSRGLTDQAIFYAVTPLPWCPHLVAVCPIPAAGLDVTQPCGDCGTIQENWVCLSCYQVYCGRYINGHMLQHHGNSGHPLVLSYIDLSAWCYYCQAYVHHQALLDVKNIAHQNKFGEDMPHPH
Put plainly: Inhibition of recombinant human full length N-terminal GST-tagged HDAC6 expressed in Sf9 cells using fluorogenic substrate measured after 60 mins by FRET assay.

Chain of Histone deacetylase 2 (Q92769 whole entry): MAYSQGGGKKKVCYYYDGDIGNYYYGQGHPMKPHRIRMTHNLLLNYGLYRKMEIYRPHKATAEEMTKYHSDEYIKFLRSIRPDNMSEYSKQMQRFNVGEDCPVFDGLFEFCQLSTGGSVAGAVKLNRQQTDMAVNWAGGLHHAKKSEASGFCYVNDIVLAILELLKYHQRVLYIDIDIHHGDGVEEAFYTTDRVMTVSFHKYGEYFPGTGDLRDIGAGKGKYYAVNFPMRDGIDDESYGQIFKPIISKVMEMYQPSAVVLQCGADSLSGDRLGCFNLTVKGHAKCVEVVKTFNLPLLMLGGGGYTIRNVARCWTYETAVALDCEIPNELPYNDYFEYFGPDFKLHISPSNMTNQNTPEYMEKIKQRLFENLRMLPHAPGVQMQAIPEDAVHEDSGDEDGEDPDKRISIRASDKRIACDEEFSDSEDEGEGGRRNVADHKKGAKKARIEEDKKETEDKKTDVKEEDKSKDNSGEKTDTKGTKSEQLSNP
Description for Histone deacetylase 2: Inhibition of recombinant human full length C-terminal His- tagged HDAC2 (1 to 488 residues) expressed in Sf9 insect cells using fluorometric substrate measured after 60 mins by FRET assay

As to `C/C=C1\NC(=O)c2csc(n2)CNC(=O)C[C@@H](/C=C/CCSSCCCCCCC)OC(=O)[C@H](CCCCN)NC1=O`, the IC50 is > 10 µM at Histone deacetylase 8, 0.0075 µM on Histone deacetylase 2 and > 10 µM in test [1].

Broadly, the IC50 is the concentration that inhibits the measured activity by half.

Source of the values: ChEMBL document CHEMBL5030507, “Structure-Based Design of a Selective Class I Histone Deacetylase (HDAC) Near-Infrared (NIR) Probe for Epigenetic Regulation Detection in Triple-Negative Breast Cancer (TNBC)” (J Med Chem, 2021).
